Earlier results as cited in patent publication US4335127A, “Piperidinylalkyl quinazoline compounds, composition and method of use” (Janssen Pharmaceutica, N.V., priority 1979, dated 1982).

Legend:
[1] = system: lesions in the glandular area of the stomach and distension of the stomach induced by compound 48/80 in rats; settings: rats treated with compound 48/80; cited from earlier work
[2] = system: cyanosis of ears and extremities induced by compound 48/80 in rats; settings: rats treated with compound 48/80; cited from earlier work
Note: test concentration or dose not given here.

O=C(CCCN1CCC2(CC1)C(=O)NCN2c1ccccc1)c1ccc(F)cc1 [spiperone]
prevent completely: prevention of the abnormal gastric distension (known serotonin antagonists) [1] | prevention of the lesions in the glandular area of the stomach (known serotonin antagonists) [1] | prevention of the cyanosis of ears and extremities (known serotonin antagonists) [2]

CN1CCC(=C2c3ccccc3CCc3sccc32)CC1 [pizotifen]
prevent completely: prevention of the abnormal gastric distension (known serotonin antagonists) [1] | prevention of the lesions in the glandular area of the stomach (known serotonin antagonists) [1] | prevention of the cyanosis of ears and extremities (known serotonin antagonists) [2]

CN1CCC(=C2c3ccccc3C=Cc3ccccc32)CC1 [cyproheptadine]
prevent completely: prevention of the abnormal gastric distension (known serotonin antagonists) [1] | prevention of the lesions in the glandular area of the stomach (known serotonin antagonists) [1] | prevention of the cyanosis of ears and extremities (known serotonin antagonists) [2]

CN(C)CCCSc1ccccc1NC(=O)/C=C/c1ccccc1 [cinanserin]
prevent completely: prevention of the abnormal gastric distension (known serotonin antagonists) [1] | prevention of the lesions in the glandular area of the stomach (known serotonin antagonists) [1] | prevention of the cyanosis of ears and extremities (known serotonin antagonists) [2]

CN1CCN2c3ccccc3Cc3ccccc3C2C1 (stereo not drawn) [mianserin]
prevent completely: prevention of the abnormal gastric distension (known serotonin antagonists) [1] | prevention of the lesions in the glandular area of the stomach (known serotonin antagonists) [1] | prevention of the cyanosis of ears and extremities (known serotonin antagonists) [2]

NC(=O)C1(N2CCCCC2)CCN(CCCC(=O)c2ccc(F)cc2)CC1 [pipamperone]
prevent completely: prevention of the abnormal gastric distension (known serotonin antagonists) [1] | prevention of the lesions in the glandular area of the stomach (known serotonin antagonists) [1] | prevention of the cyanosis of ears and extremities (known serotonin antagonists) [2]
